Assay results reported in patent US11053409B2, “Compositions for containers and other articles and methods of using same” (priority 2011, dated 2021).

Target: T1, human estrogen receptor (Homo sapiens, UniProt P03372)
T1 sequence (P03372 1-595): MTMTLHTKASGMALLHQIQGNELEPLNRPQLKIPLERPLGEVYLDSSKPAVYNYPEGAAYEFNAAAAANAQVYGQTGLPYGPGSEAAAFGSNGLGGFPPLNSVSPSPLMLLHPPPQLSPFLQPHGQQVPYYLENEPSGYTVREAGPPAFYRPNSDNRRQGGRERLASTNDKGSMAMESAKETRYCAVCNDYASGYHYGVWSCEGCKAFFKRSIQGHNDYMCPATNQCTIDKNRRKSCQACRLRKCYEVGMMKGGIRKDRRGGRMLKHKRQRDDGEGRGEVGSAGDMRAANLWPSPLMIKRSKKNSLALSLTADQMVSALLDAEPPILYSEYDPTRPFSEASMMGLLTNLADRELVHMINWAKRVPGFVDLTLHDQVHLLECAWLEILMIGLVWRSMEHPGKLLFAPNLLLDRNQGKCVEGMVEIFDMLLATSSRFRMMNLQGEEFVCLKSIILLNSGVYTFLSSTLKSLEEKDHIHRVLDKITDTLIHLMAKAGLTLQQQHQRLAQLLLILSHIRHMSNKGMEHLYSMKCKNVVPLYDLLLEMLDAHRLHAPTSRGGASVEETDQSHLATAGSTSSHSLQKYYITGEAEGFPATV
Assay: suitable in vitro assay whose results are directly correlated to the MCF-7 assay
Conditions: in vitro assay correlated to MCF-7 assay through common reference compounds

Row | Compound | estrogenic activity
1 | CC(C)(C)c1cc(O)c(C(C)(C)C)cc1O [Structure 12] | do not exhibit appreciable estrogenic activity
2 | Cc1cc(Cc2cc(C)c(O)c(C)c2)cc(C)c1O [Structure 6] | do not exhibit appreciable estrogenic activity
3 | CC(C)(C)c1cc(Cc2cc(C(C)(C)C)c(O)c(C(C)(C)C)c2)cc(C(C)(C)C)c1O [Structure 8] | do not exhibit appreciable estrogenic activity
4 | Cc1cc(Cc2cc(C)cc(C(C)(C)C)c2O)c(O)c(C(C)(C)C)c1 [Structure 9] | do not exhibit appreciable estrogenic activity
5 | CCCC(c1cc(C(C)(C)C)c(O)cc1C)c1cc(C(C)(C)C)c(O)cc1C [Structure 7, 4,4′-butylidenebis(2-t-butyl-5-methylphenol)] | do not exhibit appreciable estrogenic activity

Test system: MCF-7, clone WS8, cells
Assay: MCF-7 cell proliferation assay of estrogenic activity
Type: cell-based, human
Conditions: logarithmic (base 10) Relative Proliferative Effect relative to 17-beta estradiol; values stated as expected or measured
Description: The MCF-7 assay uses MCF-7, clone WS8, cells to measure whether and to what extent a substance induces cell proliferation via estrogen receptor (ER)-mediated pathways. The method is described in “Test Method Nomination: MCF-7 Cell Proliferation Assay of Estrogenic Activity” submitted for validation by CertiChem, Inc. to the National Toxicology Program Interagency Center for the Evaluation of Alternative Toxicological Methods (NICEATM) on Jan. 19, 2006 (available online at http://iccvam.niehs.nih.gov/methods/endocrine/endodocs/SubmDoc.pdf).
A brief summary of the method of the aforementioned MCF-7 assay is provided below. MCF-7, clone WS8, cells are maintained at 37° C. in RMPI (or Roswell Park Memorial Institute medium) containing Phenol Red (e.g., GIBCO Catalog Number 11875119) and supplemented with the indicated additives for routine culture. An aliquot of cells maintained at 37° C. are grown for 2 days in phenol-free media containing 5% charcoal stripped fetal bovine serum in a 25 cm^2 tissue culture flask. Using a robotic dispenser such as an epMotion 5070 unit, MCF-7 cells are then seeded at 400 cells per well in 0.2 ml of hormone-free culture medium in Corning 96-well plates. The cells are adapted for 3 days in the hormone-free culture medium prior to adding the chemical to be assayed for estrogenic activity. The media containing the test chemical is replaced daily for 6 days. At the end of the 7-day exposure to the test chemical, the media is removed, the wells are washed once with 0.2 ml of HBSS (Hanks' Balanced Salt Solution), and then assayed to quantify amounts of DNA per well using a micro-plate modification of the Burton diphenylamine (DPA) assay, which is used to calculate the level of cell proliferation.
RPE is the ratio between the EC50 of the test chemical and the EC50 of the control substance 17-beta estradiol times 100, where EC50 is “effective concentration 50%” or half-maximum stimulation concentration for cell proliferation measured as total DNA in the MCF-7 assay.

Row | Compound | Log RPE
6 | CC(C)(c1ccc(O)cc1)c1ccc(C(C)(C)c2ccc(O)cc2)cc1 [Structure 10] | less than −4
7 | Oc1ccc(Cc2ccc(O)cc2)cc1 [Bisphenol F, reference compound] | −2
8 | C/C=C(/C(=C/C)c1ccc(O)cc1)c1ccc(O)cc1 [dienestrol, reference compound] | about 2
9 | O=c1c(-c2ccc(O)cc2)coc2cc(O)cc(O)c12 [Genistein, reference compound] | −2
10 | CC(c1ccccc1)(c1ccc(O)cc1)c1ccc(O)cc1 [Structure 4] | −3
11 | Cc1cc(Cc2cc(C)cc(C3(C)CCCCC3)c2O)c(O)c(C2(C)CCCCC2)c1 [Structure 13] | less than −4
12 | CC(c1ccc(O)cc1)(c1ccc(O)cc1)c1ccc(O)cc1 [Structure 3] | −3
13 | Cc1cc(Cc2cc(C)c(O)c(C)c2)cc(C)c1O [Structure 6] | less than −4
14 | CCCC(c1cc(C(C)(C)C)c(O)cc1C)c1cc(C(C)(C)C)c(O)cc1C [Structure 7] | less than −4
15 | C[C@]12CC[C@@H]3c4ccc(O)cc4CC[C@H]3[C@@H]1CC[C@@H]2O [17β-estradiol, reference compound] | 2.00
16 | O=S(=O)(c1ccc(O)cc1)c1ccc(O)cc1 [Bisphenol S, reference compound] | −2
17 | Oc1ccccc1Cc1ccccc1O [Structure 11] | less than −4
18 | Cc1cc(C(C)(C)c2cc(C)c(O)c(C)c2)cc(C)c1O [Structure 1] | −2
19 | CC/C(=C(/CC)c1ccc(O)cc1)c1ccc(O)cc1 [diethylstilbestrol, reference compound] | about 2
20 | CC(C)(C)c1cc(Cc2cc(C(C)(C)C)c(O)c(C(C)(C)C)c2)cc(C(C)(C)C)c1O [Structure 8] | less than −4
21 | Cc1cc(Cc2cc(C)cc(C(C)(C)C)c2O)c(O)c(C(C)(C)C)c1 [Structure 9] | less than −4
22 | CCc1cc(Cc2cc(CC)cc(C(C)(C)C)c2O)c(O)c(C(C)(C)C)c1 [Structure 15] | less than −4
23 | Cc1cc(CCc2cc(C)c(O)c(C)c2)cc(C)c1O [Structure 2] | −3

Test system: not listed separately
Assay: suitable genotoxicity assays (e.g., Ames II assay)
Type: cell-based
Conditions: not given
Procedure: The mixture was stirred for 30 minutes at −10° C. Epichlorohydrin (1.9 liters, 24.2 moles) was added via dropping funnel at −10 to −5° C. The solution was allowed to warm up to room temperature and then was heated for 16 hours at a temperature of from 75 to 82° C. After cooling down to ambient temperature, the mixture was added to cold tap water (12 liters). Ethyl acetate (5 liters) was added to the mixture, which was stirred for 10 minutes and separated. The aqueous layer was extracted again with additional ethyl acetate (3 liters). The combined ethyl acetate extracts were washed twice with brine (2×6 liters), dried over anhydrous sodium sulfate (600 grams), and filtered. The solvent was removed under reduced pressure to give 887 grams of crude product as a purple oil. The crude product was dissolved in toluene (600 milliliters) and passed over a silica gel pad (1.4 kilograms), and eluted with a mixture of toluene and heptane (8 parts toluene to 2 parts heptane). The fractions containing product were combined and evaporated under reduced pressure. The product was mostly the desired diepoxide (756 grams, yellow oil which crystallizes in time), with some monoepoxide present. The purified material (756 grams) was dissolved at 70° C. in 2-propanol (2.3 liters) and then allowed to cool down to room temperature overnight. […]

Row | Compound | genotoxicity
24 | CC(C)(C)c1cc(Cc2cc(C(C)(C)C)c(OCC3CO3)c(C(C)(C)C)c2)cc(C(C)(C)C)c1OCC1CO1 (stereo not shown) [Diglycidyl ether of 4,4′-methylenebis(2,6-di-tert-butylphenol)] | non-genotoxic
25 | CCCC(c1cc(C(C)(C)C)c(OCC2CO2)cc1C)c1cc(C(C)(C)C)c(OCC2CO2)cc1C (stereo not shown) | non-genotoxic
